Assay results published in patent US7544711B2, “Use of nitroderivatives in urinary incontinence” (Nicox S.A., priority 1996, dated 2009).

Columns and labels:
[1] = tested on: normal urinary bladder strips; assay: Electrically induced contraction of urinary bladder strips, normal rats; type: cell-based, rat; settings: 10^−6 M; normal tissue; 1/7 Hz electrical stimulation
Excerpt: (§1) The vesical hypertrophy model secondary to urethral obstruction in rats described by Malmgren A. et al.: Cystometrical evaluation of bladder instability in rats with intravesical outflow obstruction, The Journal of Urology, 1987, 137, 1291-1294, was used in order to evaluate the effect of the drugs on hyperactive vesical muscle.
(§2) Male Sprague Dawley rats weighing about 250 g were used. In order to obtain partial urethral obstruction, the rats were anaesthetised with Nembutal and the urinary bladder and urethra were exposed by abdominal incision. A ligature was made around the urethra in the presence of an intraluminal cannula with 1 mm diameter. After suturing the abdominal wall the animals were stabulated for 6 weeks in order for vesical hypertrophy to start.
(§3) The in vitro experiments were conducted with the parallel use of strips obtained from normal rats and rats with vesical hypertrophy.
(§4) The in vitro urinary bladder strips were prepared as described above and the inhibition induced by the drugs on contraction induced by 1/7 Hz electrical stimulation lasting 1 msec., an above maximal voltage, produced by two platinum electrodes, was measured.

[2] = tested on: rat femoral artery strips; assay: Relaxing activity on vessel smooth muscle (phenylephrine-contracted femoral artery strips); type: cell-based; settings: contractions induced by 3×10^−5 M phenylephrine
Excerpt: Male Wistar rats weighing 200 to 300 g were used. The method used is described by Zhou Q. et al. The inhibitory mechanism of nicorandil in isolated rat urinary bladder and femoral artery, European Journal of Pharmacology, 153-159, 1995. After sacrifing the rats by cervical displacement, the femoral arteries were isolated for the preparation of helicoidal strips about 1×15 mm in size, from which the endothelium was removed. The prepared strips were placed in baths for isolated organs containing Krebs liquid and subjected to a weight of 0.5 g. Tension variations during the test were isometrically measured by means of a pressure transducer connected to a polygraph. The inhibitory effect of a treatment with the test derivatives on contractions induced by 3×10^−5 M phenylephrine versus reference preparations having a potassium channel opening activity and/or NO donors was measured.

[3] = tested on: hypertrophic urinary bladder strips; assay: Electrically induced contraction of urinary bladder strips, rats with vesical hypertrophy; type: cell-based, rat; settings: 10^−6 M; hypertrophic tissue; 1/7 Hz electrical stimulation
Excerpt: as §1, §2, §3, §4

[4] = tested on: isolated rat detrusor; assay: Contraction inhibiting activity in isolated rat detrusor (40 mM KCl); type: cell-based
Experimental: Male Wistar rats weighing 200 to 300 g were used. The method used is described by Zhou Q. et al. (1995) (see Example 13). After sacrificing the rats by cervical displacement the urinary bladder was isolated and horizontal strips of detrusor muscle about 2 mm wide and about 5 mm long were obtained from the median region. The strips were placed in baths for isolated organs containing Krebs liquid and subjected to a 1 g tension. Tension variations during the test were measured isometrically by using a pressure transducer connected to a polygraph. The inhibitory effect of a pre-treatment with the test derivatives on contraction induced by 40 mM KCl was determined versus drugs having an opening potassium channel activity (cromakalin, nicorandil) nitroderivatives (nitroglycerin, nicorandil) and anti-inflammatories (indomethacin, naproxen, nimesulide).

[5] = tested on: normal urinary bladder of conscious dogs; assay: Cystometrogram, normal urinary bladder of conscious dogs; type: in vivo, dog; settings: 4 hours following dosing, IC=interval between contractions
Experimental: The cystometrogram of conscious dogs was determined in accordance with the method described by Howe B. B. et al., ZENECA ZD 6169: a NOVEL KATP Channel opener with in vivo selectivity for urinary bladder, Journal of Pharmacology and Experimental Therapeutics, 274, 884-890, 1995.
Female Beagle dogs with urinary bladder catheterised through the urethra by operating in sterile conditions, were used. Catheters were connected to a perfusor which perfused into the urinary bladder a physiological solution and to a pressure transducer in order to measure intravesical pressure. After 15 minute stabilisation, a 30 ml bolus of physiological solution was perfused into the urinary bladder in order to measure increased intravesical pressure and a series of smaller boluses were then perfused until spontaneous contractions were observed. After a period of contraction stabilisation, contracting activity was monitored for 60 minutes. The animals were then treated orally with the test products and urination frequency was then measured during 4 hours following dosing in […].

[6] = tested on: pig urethral smooth muscle; assay: Relaxing effect in pig urethral smooth muscle; type: cell-based; settings: 10^−5 M; for Relaxation % 1: first treatment; for Relaxation % 1 / Relaxation % 2: 100% = highest relaxation in medium without Ca++; for Relaxation % 2: second consecutive treatment; for relaxing activity and tachyphylaxis (in words): two consecutive treatments
Experimental: Samples of urethra were removed from female pigs about 6 months old.
The urethra was opened longitudinally and samples of smooth muscle about 1×2×6 mm in size were removed from an area about 4 mm below ureteral orifices. The samples of smooth muscle were placed in baths for isolated organs, incubated at 37° C. and subjected to a 10 mN tension and connected to a force transducer for measuring mechanical activity. After a period of balancing of about 60 minutes, the prepared samples were exposed to Krebs solution without Ca++ to determine the highest relaxation level. Normal tone was then restored by adding Krebs solution. The relaxation effects of the test derivatives were then measured. The test wasa repeated two consecutive times for each prepared sample in order to evaluate any tachyphylaxis effects.

[7] = tested on: normal urinary bladder of conscious rats; assay: Cystometrogram, normal urinary bladder of conscious rats; type: in vivo, rat; settings: 5 mg/kg oral, 4 hours after dosing, IC=interval between contractions
Experimental: Cystometrograms of conscious rats were determined according to the method described by Howe B. B et al. (1995) (see Example 9).
Male Wistar rats weighing about 500 g were used. The rats were anaesthetised with Nembutal. After opening their abdomen and exposing their urinary bladder, a catheter filled with physiological solution was implanted in the urinary bladder and caused to emerge from the back of the animals. The abdominal muscle and skin were then sutured. 48 hours after surgery the animals were placed in metabolic cages and the catheters were connected to a perfusor which perfused 0.18 ml/min of a physiological solution into the urinary bladder, and to a pressure transducer in order to measure intravesical pressure. After stabilisation for 60 minutes, the animals were orally treated with the test products and urination frequency was than measured during 4 hours after dosing.

[8] = target: T1, nitroxy-sinthetase (Rattus norvegicus, UniProt Q06518); assay: LPS-induced nitroxysynthetase activity in rat neutrofils after i.p. dosing; type: in vivo; settings: 10 mg/kg i.p.; LPS 5 mg/kg i.v.; rat neutrofils four hours later; compared to the group treated with the vehicle alone
T1 construct: Blood was collected for neutrofil isolation; from tissue; host or cells: neutrophils isolated from blood of LPS-treated Wistar rats
Experimental: The nitroxy-sinthetase inhibiting activity induced by lipopolisaccharide (LPS) was determined in rat neutrofils after administration of any of the test compounds and compared with that obtained after treatment with the suspending vehicle alone (0.5% carboxymethyl cellulose, 5 ml/kg) and a product used as comparison. Briefly, Wistar rats fasted for 24 hours before treatment received one of the test compounds (10 mg/kg) intraperitoneally or the vehicle LPS (5 mg/kg) intravenously (caudal vein).
Four hours later the animals were sacrified. Blood was collected for neutrofil isolation.
The enzymatic activity was determined according to the od described by Assreuy J. et al. Feedback inhibition of nitric oxide sinthase activity by nitric oxide, British Journal of Pharmacology, […], 1993.

[9] = tested on: gastroenteric tract of rats; assay: In vivo gastrointestinal safety study; design: species or system rat
Excerpt: Forty Sprague Dawley rats weighing about 300 g were randomly divided into 4 groups and orally treated twice a day for 4 days according to the following experimental scheme:
Eighteen hours after the last treatment the rats were sacrified to determine any gastrointestinal damage.

[10] = tested on: normal urinary bladders of anaesthetised rats; assay: Urinary bladder voiding reflex in anaesthetised rats; type: in vivo, rat; settings: 18 hours after last treatment, controls = 100
Experimental: 40 Sprague Dawley rats weighing about 300 g were randomly divided into 4 groups and orally treated twice a day for 4 days according to the following experimental scheme: 18 hours after the last treatment, the effects on the urinary bladder voiding reflex were evaluated using the method described by Maggi C. A. et al., Prostanoids modulate reflex micturition by acting through capsaicin-sensitive afferents, European Journal of Pharmacology, 105-112, 1988. The animals were anaesthetised with urethane, the urinary bladder was prepared for intraluminal pressure measurement. After a stabilisation period with an empty urinary bladder, this was progressively filled with a physiological solution by slow infusion (0.046 ml/min). A contraction of the urinary bladder was observed upon reflex triggering. The volume of physiological solution and intraluminal pressure required to evoke the reflex (volume and pressure thresholds) were measured. […] All tested products increased this threshold and can, therefore, be considered useful in case of detrusor instability.

[11] = 3 mg/kg oral twice a day for 4 days, rats
[12] = Rattus norvegicus, 10^−4 M, contraction induced by 40 mM KCl
[13] = 3 mg/kg oral twice a day for 4 days
[14] = 5 mg/kg oral twice a day for 4 days

| Structure (SMILES) | Relaxation % 1 [6] [%] | Relaxation % 2 [6] [%] | relaxing activity and tachyphylaxis (in words) [6] | IC treated/IC baseline [7] | IC treated/IC baseline ([5]; 3 mg/kg oral) | inhibition at 100 µM [4, 12] [%] | further results |
| --- | --- | --- | --- | --- | --- | --- | --- |
| CC1(C)Oc2ccc(C#N)cc2C(N2CCCC2=O)C1O (centres unmarked) [Cromakalim] | – | – | – | – | – | – | Contraction % [1]: 50.5%; inhibition at 0.3 µM ([2]; Rattus norvegicus, 3 × 10^−7 M): 54.1%; Contraction % [3]: 35.7%; inhibition at 1 µM ([4]; Rattus norvegicus, 10^−6 M, contraction induced by 40 mM KCl): 33.3%; IC treated/IC baseline ([5]; 0.5 mg/kg oral): 1.48 |
| O=C(O)c1ccccc1Nc1cccc(C(F)(F)F)c1 [Flufenamic acid, 2-[[3-(trifluoromethyl)phenyl]-amino]benzoic acid] | 12.2 | 13.2 | has itself a myorelaxing activity | 1.42 | 1.42 | – | NITROXY-SYNTHETASE ACTIVITY [8]: 98 percentage |
| COc1ccc2c(c1)c(CC(=O)O)c(C)n2C(=O)c1ccc(Cl)cc1 [Indomethacin] | 1.0 | 1.2 | practically inactive | 1.34 | 1.25 | 38.5 | Contraction % [1]: 78.2%; Contraction % [3]: 76.3%; animals with diffuse adherences [9, 11]: 3/10; animals with ulceration also in the intestines [9, 11]: 7/19; gastrointestinal damage (in words) [9, 11]: ulceration was observed in the stomachs; Pressure threshold (%) [10, 13]: 190%; Volume threshold (%) [10, 13]: 198% |
| N=C(N)NCCC[C@H](N)C(=O)O [L-arginine] | 22.7 | 12.2 | active but induced tachyphylaxis | – | – | – | – |
| O=C(Oc1cccc(CO[N+](=O)[O-])c1)c1ccccc1Nc1cccc(C(F)(F)F)c1 [NO-F] | 45.8 | 52.1 | – | 1.62 | 1.76 | – | NITROXY-SYNTHETASE ACTIVITY [8]: 63 percentage; gastrointestinal damage (in words) ([9]; 5 mg/kg oral twice a day for 4 days, group of 10 rats): one animal with a gastric ulcer and an animal with a duodenal ulcer; Pressure threshold (%) [10, 14]: 203%; Volume threshold (%) [10, 14]: 205% |
| COc1ccc2c(c1)c(CC(=O)Oc1cccc(CO[N+](=O)[O-])c1)c(C)n2C(=O)c1ccc(Cl)cc1 [NO-I] | 39.3 | 37.2 | – | 1.48 | 1.43 | 46.3 | Contraction % [1]: 61.5%; inhibition at 100 µM ([2]; Rattus norvegicus, 10^−4 M): 22.2%; Contraction % [3]: 40.3%; animals with gastric ulcers ([9]; 3 mg/kg oral twice a day for 4 days, group of 10 rats): 1; Pressure threshold (%) [10, 13]: 223%; Volume threshold (%) [10, 13]: 226% |
| CS(=O)(=O)N(C(=O)CCCCCO[N+](=O)[O-])c1ccc([N+](=O)[O-])cc1Oc1ccccc1 [NO-M, N-[(2-PHENOXY-4-NITRO)PHENYL]-N-(6-NITROXY)HEXANOYLMETHANE-SULPHONAMIDE] | – | – | – | – | – | – | Inhibition % ([2]; 10^−4 M): 19.5%; Inhibition % ([4]; 10^−4 M, contraction induced by 40 mM KCl): 48.1% |
| COc1ccc2cc([C@H](C)C(=O)O)ccc2c1 [Naproxen] | – | – | – | – | – | – | inhibition at 100 µM ([4]; Rattus norvegicus, 5 · 10^−4 M, contraction induced by 40 mM KCl): 15.2% |
| O=C(NCCO[N+](=O)[O-])c1cccnc1 [Nicorandil] | – | – | – | – | – | 26.4 | inhibition at 1 µM ([2]; Rattus norvegicus, 10^−6 M): 32.6% |
| CS(=O)(=O)Nc1ccc([N+](=O)[O-])cc1Oc1ccccc1 [Nimesulide] | – | – | – | – | – | 41.8 | – |
| O=[N+]([O-])OCC(CO[N+](=O)[O-])O[N+](=O)[O-] [Nitroglycerin] | 32.1 | 7.3 | active but induced tachyphylaxis | – | – | – | inhibition at 10 µM ([4]; Rattus norvegicus): 28.7% |
